In patent US20090215895A1, “Therapeutic and carrier molecules” (PEPLIN BIOLIPIDS PTY LTD, priority 2004, published 2009):
Entries after “also recorded” stand apart in the source; their conditions may differ.

Legend:
neutrophil NADPH oxidase = experiment: Neutrophil respiratory burst (NADPH oxidase activation, chemiluminescence); assay type: cell-based, human; settings: human neutrophils, up to 30 μmol/l
Procedure: The structure of PT2 is shown in (c) above. In this screening assay, neutrophils were prepared from the blood of healthy volunteers. Freshly collected blood was layered onto a Hypaque-Ficoll medium of density 1.114 and centrifuged at 400 g for 30 mins at room temperature. After centrifugation, the leukocytes resolved into two distinct bands, with neutrophils being present in the second band (Ferrante and Thong, J. Immun. Methods 48:81-85, 1982).
Activation of the neutrophil NADPH oxidase was measured by lucigenin-dependent chemiluminescence following a 10 min incubation of PT2 (20 μM, final concentration) with 1×10^6 neutrophils from different donors (Power et al, J. Immunol. 159:2952-2959, 1997). Arachidonic acid (20:4, n-6) was used as a positive stimulator of the oxidase
Neutrophil respiratory burst was determined as previously described (Li et al, J. Clin. Invest. 97:1605-1609, 1996).

E-selectin = experiment: LPS-induced E-selectin expression in aortic endothelium; assay type: in vivo, BALB/c mice; settings: intravenous, 2 hr before LPS, aortas after 5 hr
Procedure: FIG. 14 is a representation showing (A) effect of MP3 on in vivo inflammatory response measured as delayed type hypersensitivity (DTH) to sheep erythrocytes and LPS-induced influx of neutrophils and mononuclear cells in the peritoneal cavity in BALB/c mice. In the DTH experiments mice were injected with sheep erythrocytes subcutaneously, challenged with the antigen in the hind foot pad 6 days later and the amount of foot pad swelling measured 48 hr later. One hour prior to challenge mice were given 10 mg/kg body weight of β-oxa fatty acid in 7% w/v, DMSO as vehicle intraperitoneally. For the peritoneal cavity inflammation, mice were given intravenously 40 mg/kg MP3 intravenously and 6 hr later injected with LPS intraperitoneally. The cellular infiltrates were examined 24 and 72 hr later. The data, expressed as % of control, are presented as mean±SEM of 10 and 5 mice for DTH and peritoneal inflammation, respectively. […] The data, expressed as % of control, are presented as mean±SEM of ten mice per group and is representative of two experimental runs. […]
The LPS-induced expression of E-selectin in the aortic endothelium of BALB/c mice was determined following injection of 50 μg LPS intraperitoneally and aortas encompassing the ascending part of the aortic arch through to the bifurcation to the common iliac arteries isolated after 5 hr. […]

NFκB p65 = experiment: TNF-stimulated nuclear translocation of NFκB in HUVEC; assay type: cell-based, human; settings: 20 μmol/l
Procedure: FIG. 17 is a representation showing (A) the effect of MP3 (β-oxa 23:4n-6) and DHA on TNF-induced degradation of IκBα in HUVEC. Cells were pre-treated with the fatty acids (20 μmol/l) for 30 min and then stimulated with TNF (125 U/ml) for 10 min. After cell lysis the proteins were analyzed by Western blots using anti-IκBα antibodies. (B) The effects of β-oxa-23:4n-6 on TNF-induced activation of transcriptional factor, NFκB in HUVEC. Cells were pre-treated with β-oxa-23:4n-6 (20 μmol/l) for 30 min and then stimulated with TNF for 2 hr. After cell lysis, nuclear fractions were prepared, nuclear proteins separated by SDS PAGE (12% w/v gel), transferred to nitrocellulose and probed with an anti-NFκB p65 antibody (Santa Cruz). […] (C) The effect of β-oxa 23:4n-6 on TNF-stimulated activation of IKK. Cells were pre-treated with β-oxa 23:4n-6 (20 μmol/l) for 30 min and then stimulated with TNF for 5 min. After cell lysis IKK was immunoprecipitated with anti-IKKα antibody and kinase activity determined. […]
Proteins (50 μg) were separated by SDS PAGE (12% w/v gel), transferred to nitrocellulose and probed with an anti-NFκB p65 or anti-IκBα antibody (Santa Cruz Biotech, Santa Cruz, Calif.). Immunocomplexes were detected by enhanced chemiluminescence (Hii et al, 1998 supra).

## CCCCC/C=C\C/C=C\C/C=C\C/C=C\CCCCOCC(=O)O [MP3, β-oxa-23:4n-6]
Neutrophil NADPH oxidase
  Stimulation of the neutrophil respiratory burst (chemiluminescence response): relatively poor at stimulating this response; also recorded: failed to cause any significant respiratory burst
E-selectin
  LPS-induced E-selectin expression in aortic endothelium: effective in vivo at suppressing LPS-stimulated up-regulation of E-selectin expression
E-selectin; listed as β-oxa-23:4n-6
  LPS-induced E-selectin expression in aortic endothelium: significant reduction in LPS-induced E-selectin expression
NFκB p65; 30 min, TNF 2 hr, mean±SEM, three experiments
  Reduction of TNF-stimulated nuclear accumulation of NFκB: 66±2%
NFκB p65; TNF
  Translocation of NFκB to the nucleus: inhibition of translocation of NFκB to the nucleus
